Results taken from patent US20250282771A1, “TETRAHYDROISOQUINOLINE HETEROBIFUNCTIONAL BCL-XL DEGRADERS” (Treeline Biosciences, Inc., priority 2022, published 2025).

Target: T1, N-terminal HiBiT tagged BCL-XL (Homo sapiens, UniProt Q07817)
T1 construct: expressed in transfected cells; host or cells: HT-1080 (ATCC CCL-121) cells stably transduced with lentivirus pLV-UBC-N-HiBiT-BCL-XL-PGK-puro
Test: HiBiT based degradation assay
Assay type: cell-based
Settings: HT1080 cells expressing N-terminal HiBiT tagged BCL-XL, BCL-XL level normalized with DMSO control
Text: Human BCL-XL protein coding open reading frame fused with N-terminal HiBiT coding sequence was synthesized from Integrated DNA Technologies (IDT). Next, N-HiBiT-BCL-XL sequence was cloned into pLV-UBC-PGK-Puro, a lentivirus plasmid purchased from Vectorbuilder, to generate pLV-UBC-N-HiBiT-BCL-XL-PGK-puro. Lentiviral particles were generated from Lenti-X™ 293T cells (Clontech) by co-transfection of pLV-UBC-N-HiBiT-BCL-XL-PGK-puro plasmids and lentiviral packaging plasmid mix (Cellecta). HT-1080 [HT1080](ATCC CCL-121) cells were infected with the lentivirus, and HT1080 cells stably integrated with the lentiviral vectors were established by incubation with […] puromycin (Thermofisher).
HT1080 cells expressing N-terminal HiBiT tagged BCL-XL were dispensed into a 384-well plate pre-spotted with compounds at varying concentrations. Three thousand cells were seeded into each well in 40 μL of RPMI 1640 media. […] After incubation, luminescence was read on a PHERAstar FSX Plate Reader (BMG). BCL-XL degradation at each indicated concentration was normalized with the DMSO control. The BCL-XL degradation curves were plotted using a four-parameter logistic model. For compounds displaying hook effects, the curve fitting was performed using the bottom point of the hook curves (i.e., the point of Ymin) as the bottom plateau to calculate EC50.

T1 sequence (Q07817 whole entry): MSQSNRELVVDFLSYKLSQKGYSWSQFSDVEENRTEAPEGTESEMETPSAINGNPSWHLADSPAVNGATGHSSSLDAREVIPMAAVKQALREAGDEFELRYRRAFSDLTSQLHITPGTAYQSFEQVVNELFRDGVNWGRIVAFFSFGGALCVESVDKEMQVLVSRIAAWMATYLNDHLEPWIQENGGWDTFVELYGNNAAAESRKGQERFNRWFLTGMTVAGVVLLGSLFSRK

| Ymin (24 h) | Ymin (6 h) | SMILES |
| --- | --- | --- |
| B (50% ≤ Ymin < 70%) |  | Cc1c(OCC2CC3(CCN(CCN4CCN(c5cc6c(cc5F)C(=O)N(C5CCC(=O)NC5=O)C6=O)CC4)CC3)C2)cccc1-c1ccc(N2CCc3cccc(C(=O)Nc4nc5ccccc5s4)c3C2)nc1C(=O)O (stereo not drawn) [Compound 132, 6-(8-(benzo[d]thiazol-2-ylcarbamoyl)-3,4-dihydroisoquinolin-2(1H)-yl)-3-(3-((7-(2-(4-(2-(2,6-dioxopiperidin-3-yl)-6-fluoro-1,3-dioxoisoindolin-5-yl)piperazin-1-yl)ethyl)-7-azaspiro[3.5]nonan-2-yl)methoxy)-2-methylphenyl)picolinic acid] |
| B (50% ≤ Ymin < 70%) | C (Ymin ≥ 70%) | Cc1c(OCCCCCCCN2CCN(c3cc4c(cc3F)C(=O)N(C3CCC(=O)NC3=O)C4=O)CC2)cccc1-c1ccc(N2CCc3cccc(C(=O)Nc4nc5ccccc5s4)c3C2)nc1C(=O)NO (stereo not drawn) [Compound 137, N-(benzo[d]thiazol-2-yl)-2-(5-(3-((7-(4-(2-(2,6-dioxopiperidin-3-yl)-6-fluoro-1,3-dioxoisoindolin-5-yl)piperazin-1-yl)heptyl)oxy)-2-methylphenyl)-6-(hydroxycarbamoyl)pyridin-2-yl)-1,2,3,4-tetrahydroisoquinoline-8-carboxamide] |
| B (50% ≤ Ymin < 70%) | C (Ymin ≥ 70%) | Cc1cc(OCCCC2CCN(CC(=O)N3CCN(c4cc5c(cc4F)C(=O)N(C4CCC(=O)NC4=O)C5=O)CC3)CC2)ccc1-c1ccc(N2CCc3cccc(C(=O)Nc4nc5ccccc5s4)c3C2)nc1C(=O)O (stereo not drawn) [Compound 138] |
| B (50% ≤ Ymin < 70%) |  | Cc1c(O[C@H]2CC[C@H](CCCC(=O)N3CCN(c4cc5c(cc4F)C(=O)N(C4CCC(=O)NC4=O)C5=O)CC3)CC2)cccc1-c1ccc(N2CCc3cccc(C(=O)Nc4nc5ccccc5s4)c3C2)nc1C(=O)O (stereo partly drawn) [Compound 139a, 6-(8-(benzo[d]thiazol-2-ylcarbamoyl)-3,4-dihydroisoquinolin-2(1H)-yl)-3-(3-(((1s,4r)-4-(4-(4-(2-(2,6-dioxopiperidin-3-yl)-6-fluoro-1,3-dioxoisoindolin-5-yl)piperazin-1-yl)-4-oxobutyl)cyclohexyl)oxy)-2-methylphenyl)picolinic acid] |
| A (Ymin < 50%) | C (Ymin ≥ 70%) | Cc1c(O[C@H]2CC[C@H](CCC(=O)N3CCC(c4cc5c(cc4F)C(=O)N(C4CCC(=O)NC4=O)C5=O)CC3)CC2)cccc1-c1ccc(N2CCc3cccc(C(=O)Nc4nc5ccccc5s4)c3C2)nc1C(=O)O (stereo partly drawn) [Compound 140a, 6-(8-(benzo[d]thiazol-2-ylcarbamoyl)-3,4-dihydroisoquinolin-2(1H)-yl)-3-(3-(((1r,4r)-4-(3-(4-(2-(2,6-dioxopiperidin-3-yl)-6-fluoro-1,3-dioxoisoindolin-5-yl)piperidin-1-yl)-3-oxopropyl)cyclohexyl)oxy)-2-methylphenyl)picolinic acid] |
| B (50% ≤ Ymin < 70%) | B (50% ≤ Ymin < 70%) | Cc1c(OCCCCC2CCN(CC(=O)N3CCN(c4cc5c(cc4F)C(=O)N(C4CCC(=O)NC4=O)C5=O)CC3)CC2)cccc1-c1ccc(N2CCc3cccc(C(=O)Nc4nc5ccccc5s4)c3C2)nc1C(=O)O (stereo not drawn) [Compound 141] |
| B (50% ≤ Ymin < 70%) |  | Cc1c(OCCCC2CCN(CC3CCN(c4cc5c(cc4F)C(=O)N(C4CCC(=O)NC4=O)C5=O)CC3)CC2)cccc1-c1ccc(N2CCc3cccc(C(=O)Nc4nc5ccccc5s4)c3C2)nc1C(=O)O (stereo not drawn) [Compound 143, 6-[8-(1,3-benzothiazol-2-ylcarbamoyl)-3,4-dihydro-1H-isoquinolin-2-yl]-3-[3-[3-[1-[[1-[2-(2,6-dioxo-3-piperidyl)-6-fluoro-1,3-dioxo-isoindolin-5-yl]-4-piperidyl]methyl]-4-piperidyl]propoxy]-2-methyl-phenyl]pyridine-2-carboxylic acid] |
| A (Ymin < 50%) |  | Cc1c(OCCC2CCN(CC3CCN(c4cc5c(cc4F)C(=O)N(C4CCC(=O)NC4=O)C5=O)CC3)CC2)cccc1-c1ccc(N2CCc3cccc(C(=O)Nc4nc5ccccc5s4)c3C2)nc1C(=O)O (stereo not drawn) [Compound 145, 6-[8-(1,3-benzothiazol-2-ylcarbamoyl)-3,4-dihydro-1H-isoquinolin-2-yl]-3-[3-[2-[1-[[1-[2-(2,6-dioxo-3-piperidyl)-6-fluoro-1,3-dioxo-isoindolin-5-yl]-4-piperidyl]methyl]-4-piperidyl]ethoxy]-2-methyl-phenyl]pyridine-2-carboxylic acid] |

| SMILES | Ymin (24 h) | Ymin (6 h) |
| --- | --- | --- |
| Cc1c(OCCCC[C@@H]2CCCN(CC(=O)N3CCN(c4cc5c(cc4F)C(=O)N(C4CCC(=O)NC4=O)C5=O)CC3)C2)cccc1-c1ccc(N2CCc3cccc(C(=O)Nc4nc5ccccc5s4)c3C2)nc1C(=O)O (stereo partly drawn) [Compound 135a, 6-[8-(1,3-benzothiazol-2-ylcarbamoyl)-3,4-dihydro-1H-isoquinolin-2-yl]-3-[3-[4-[(3R)-1-[2-[4-[2-(2,6-dioxo-3-piperidyl)-6-fluoro-1,3-dioxo-isoindolin-5-yl]piperazin-1-yl]-2-oxo-ethyl]-3-piperidyl]butoxy]-2-methyl-phenyl]pyridine-2-carboxylic acid] | B (50% ≤ Ymin < 70%) |  |
| Cc1c(OCCCC[C@H]2CCCN(CC(=O)N3CCN(c4cc5c(cc4F)C(=O)N(C4CCC(=O)NC4=O)C5=O)CC3)C2)cccc1-c1ccc(N2CCc3cccc(C(=O)Nc4nc5ccccc5s4)c3C2)nc1C(=O)O (stereo partly drawn) [Compound 135b, 6-[8-(1,3-benzothiazol-2-ylcarbamoyl)-3,4-dihydro-1H-isoquinolin-2-yl]-3-[3-[4-[(3S)-1-[2-[4-[2-(2,6-dioxo-3-piperidyl)-6-fluoro-1,3-dioxo-isoindolin-5-yl]piperazin-1-yl]-2-oxo-ethyl]-3-piperidyl]butoxy]-2-methyl-phenyl]pyridine-2-carboxylic acid] | B (50% ≤ Ymin < 70%) |  |
| Cc1c(OCCCCC2CCN(CC3CCN(c4cc5c(cc4F)C(=O)N(C4CCC(=O)NC4=O)C5=O)CC3)CC2)cccc1-c1ccc(N2CCc3cccc(C(=O)Nc4nc5ccccc5s4)c3C2)nc1C(=O)O (stereo not drawn) [Compound 144, 6-[8-(1,3-benzothiazol-2-ylcarbamoyl)-3,4-dihydro-1H-isoquinolin-2-yl]-3-[3-[4-[1-[[1-[2-(2,6-dioxo-3-piperidyl)-6-fluoro-1,3-dioxo-isoindolin-5-yl]-4-piperidyl]methyl]-4-piperidyl]butoxy]-2-methyl-phenyl]pyridine-2-carboxylic acid] | A (Ymin < 50%) |  |
